Reference: US11180504B2 (ORCHID PHARMA LTD., priority 2016, dated 2021)
Converted amounts (≈) assume the structure as drawn.

Columns and labels:
[1] = tested on: methicillin-sensitive Staphylococcus aureus; assay: MIC by broth micro-dilution (CLSI), methicillin-sensitive S. aureus; assay type: cell-based; conditions: Staphylococcus aureus, ATCC 29213 / MSSA, MSSA S. aureus ATCC29213; read-out: MIC
[2] = tested on: extended spectrum β lactamase (ESBL) SHV18 producing Klebsiella pneumoniae; assay: MIC by broth micro-dilution (CLSI), ESBL SHV18 producing K. pneumoniae; assay type: cell-based; conditions: Klebsiella pneumoniae, ATCC700603, 22 h, ESBL +ve (SHV-18) K. pneumoniae ATCC700603; read-out: MIC
[3] = tested on: carbapenem sensitive Escherichia coli; assay: MIC by broth micro-dilution (CLSI), carbapenem sensitive E. coli; assay type: cell-based; conditions: Escherichia coli, ATCC25922, ESBL −ve E. coli ATCC25922; read-out: MIC
[4] = tested on: carbapenem sensitive Pseudomonas aeruginosa; assay: MIC by broth micro-dilution (CLSI), carbapenem sensitive P. aeruginosa; assay type: cell-based; conditions: Pseudomonas aeruginosa, ATCC27853, Meropenem susceptible P. aeruginosa ATCC27853; read-out: MIC
[5] = tested on: carbapenemase producing K. pneumoniae; assay: MIC by broth micro-dilution (CLSI), carbapenemase producing K. pneumoniae; assay type: cell-based, Klebsiella pneumoniae; conditions: Klebsiella pneumoniae, ATCCBAA1705, KPC-2 K. pneumoniae ATCC BAA-1705; read-out: MIC

Structure (SMILES)	MIC [1] [µg/mL]	MIC [2] [µg/mL]	MIC [3] [µg/mL]	MIC [4] [µg/mL]	MIC [5] [µg/mL]
C[C@@H](N)C(=O)N[C@H](C)[C@H]1C(=O)N2C(C(=O)O)=C(S[C@@H]3CN[C@H](C(=O)N(C)C)C3)[C@H](C)[C@H]12 [Example 59]	32 (≈ 70.6 µM)	16 (≈ 35.3 µM)	2 (≈ 4.41 µM)	32 (≈ 70.6 µM)	> 128
C[C@@H](NC(=O)CO)[C@H]1C(=O)N2C(C(=O)O)=C(S[C@@H]3CN[C@H](C(=O)N(C)C)C3)[C@H](C)[C@H]12 [Example 60]	32 (≈ 72.6 µM)	32 (≈ 72.6 µM)	16 (≈ 36.3 µM)	> 128	64 (≈ 145 µM)
C[C@@H](NC(=O)C(C)(F)F)[C@H]1C(=O)N2C(C(=O)O)=C(S[C@@H]3CN[C@H](C(=O)N(C)C)C3)[C@H](C)[C@H]12 [Example 61]	1 (≈ 2.11 µM)	16 (≈ 33.7 µM)	1 (≈ 2.11 µM)	> 128	16 (≈ 33.7 µM)
CCS(=O)(=O)CC(=O)N[C@H](C)[C@H]1C(=O)N2C(C(=O)O)=C(S[C@@H]3CN[C@H](C(=O)N(C)C)C3)[C@H](C)[C@H]12 [Example 63]	8 to 16 (≈ 15.5 to 31 µM)	16 to 32 (≈ 31 to 61.9 µM)	1 to 2 (≈ 1.94 to 3.87 µM)	> 128	8 to 16 (≈ 15.5 to 31 µM)
C[C@@H](NC(=O)C(F)(F)F)[C@H]1C(=O)N2C(C(=O)O)=C(S[C@@H]3CN[C@H](C(=O)N(C)C)C3)[C@H](C)[C@H]12 [Example 64]	2 (≈ 4.18 µM)	8 (≈ 16.7 µM)	1 to 2 (≈ 2.09 to 4.18 µM)	64 (≈ 134 µM)	8 (≈ 16.7 µM)
C[C@@H](NC(=O)C(=O)N(C)C)[C@H]1C(=O)N2C(C(=O)O)=C(S[C@@H]3CN[C@H](C(=O)N(C)C)C3)[C@H](C)[C@H]12 [Example 66]	8 (≈ 16.6 µM)	8 (≈ 16.6 µM)	2 (≈ 4.15 µM)	> 128	4 to 8 (≈ 8.31 to 16.6 µM)
CC(C)C[C@H](O)C(=O)N[C@H](C)[C@H]1C(=O)N2C(C(=O)O)=C(S[C@@H]3CN[C@H](C(=O)N(C)C)C3)[C@H](C)[C@H]12 [Example 67]	4 (≈ 8.05 µM)	> 128	8 (≈ 16.1 µM)	> 128	> 128
C[C@H](N)C(=O)N[C@H](C)[C@H]1C(=O)N2C(C(=O)O)=C(S[C@@H]3CN[C@H](C(=O)N(C)C)C3)[C@H](C)[C@H]12 [Example 68]	32 (≈ 70.6 µM)	8 (≈ 17.6 µM)	4 (≈ 8.82 µM)	32 to 64 (≈ 70.6 to 141 µM)	> 128
C[C@@H](NC(=O)CNS(C)(=O)=O)[C@H]1C(=O)N2C(C(=O)O)=C(S[C@@H]3CN[C@H](C(=O)N(C)C)C3)[C@H](C)[C@H]12 [Example 70]	16 (≈ 30.9 µM)	8 (≈ 15.5 µM)	4 (≈ 7.73 µM)	> 128	16 (≈ 30.9 µM)
C[C@@H](NC(=O)[C@@H](N)Cc1ccccc1)[C@H]1C(=O)N2C(C(=O)O)=C(S[C@@H]3CN[C@H](C(=O)N(C)C)C3)[C@H](C)[C@H]12 [Example 71]	8 (≈ 15.1 µM)	128 (≈ 242 µM)	16 (≈ 30.2 µM)	> 128	64 (≈ 121 µM)
C[C@@H](NC(=O)[C@H](N)Cc1ccccc1)[C@H]1C(=O)N2C(C(=O)O)=C(S[C@@H]3CN[C@H](C(=O)N(C)C)C3)[C@H](C)[C@H]12 [Example 72]	32 (≈ 60.4 µM)	> 128	32 (≈ 60.4 µM)	> 128	> 128
CC(C)OC(=O)C(=O)N[C@H](C)[C@H]1C(=O)N2C(C(=O)O)=C(S[C@@H]3CN[C@H](C(=O)N(C)C)C3)[C@H](C)[C@H]12 [Example 73]	4 (≈ 8.05 µM)	4 (≈ 8.05 µM)	1 to 2 (≈ 2.01 to 4.03 µM)	4 to 16 (≈ 8.05 to 32.2 µM)	8 (≈ 16.1 µM)
COC(=O)C(=O)N[C@H](C)[C@H]1C(=O)N2C(C(=O)O)=C(S[C@@H]3CN[C@H](C(=O)N(C)C)C3)[C@H](C)[C@H]12 [Example 74]	8 to 16 (≈ 17.1 to 34.1 µM)	1 to 2 (≈ 2.13 to 4.27 µM)	1 to 2 (≈ 2.13 to 4.27 µM)	8 (≈ 17.1 µM)	4 (≈ 8.54 µM)
CNC(=O)C(=O)N[C@H](C)[C@H]1C(=O)N2C(C(=O)O)=C(S[C@@H]3CN[C@H](C(=O)N(C)C)C3)[C@H](C)[C@H]12 [Example 75]	4 (≈ 8.56 µM)	8 (≈ 17.1 µM)	1 (≈ 2.14 µM)	> 128	16 (≈ 34.2 µM)
C[C@@H](NC(=O)C(F)F)[C@H]1C(=O)N2C(C(=O)O)=C(S[C@@H]3CN[C@H](C(=O)N4CCC(F)(F)CC4)C3)[C@H](C)[C@H]12 [Example 76]	2 (≈ 3.73 µM)	8 (≈ 14.9 µM)	1 (≈ 1.86 µM)	> 128	8 (≈ 14.9 µM)
C[C@@H](NC(=O)C(F)F)[C@H]1C(=O)N2C(C(=O)O)=C(S[C@@H]3CN[C@H](C(=O)N4CC[C@H](O)C4)C3)[C@H](C)[C@H]12 [Example 77]	4 to 8 (≈ 7.96 to 15.9 µM)	1 (≈ 1.99 µM)	0.5 to 1 (≈ 0.995 to 1.99 µM)	32 to 64 (≈ 63.7 to 127 µM)	4 (≈ 7.96 µM)
C[C@@H](NC(=O)CS(C)(=O)=O)[C@H]1C(=O)N2C(C(=O)O)=C(S[C@@H]3CN[C@H](C(=O)N(C)C)C3)[C@H](C)[C@H]12 [Example 78]	8 (≈ 15.9 µM)	2 (≈ 3.98 µM)	1 (≈ 1.99 µM)	128 (≈ 255 µM)	> 128
CC(C)C[C@@H](F)C(=O)N[C@H](C)[C@H]1C(=O)N2C(C(=O)O)=C(S[C@@H]3CN[C@H](C(=O)N(C)C)C3)[C@H](C)[C@H]12 [Example 79]	4 (≈ 8.02 µM)	> 128	32 (≈ 64.2 µM)	> 128	> 128
C[C@@H](NC(=O)C(F)F)[C@H]1C(=O)N2C(C(=O)O)=C(S[C@@H]3CNC(C[N+]4(C)CCCC4)C3)[C@H](C)[C@H]12 (some centres unmarked) [Example 80]	4	32	4	> 128	64
C[C@@H](NC(=O)C(F)F)[C@H]1C(=O)N2C(C(=O)O)=C(S[C@@H]3CNC(CN4CCCC4)C3)[C@H](C)[C@H]12 (some centres unmarked) [Example 81]	1 (≈ 2.12 µM)	8 (≈ 16.9 µM)	1 (≈ 2.12 µM)	64 (≈ 135 µM)	8 (≈ 16.9 µM)
CC(C)CC(F)(F)C(=O)N[C@H](C)[C@H]1C(=O)N2C(C(=O)O)=C(S[C@@H]3CN[C@H](C(=O)N(C)C)C3)[C@H](C)[C@H]12 [Example 83]	2 (≈ 3.87 µM)	> 128	64 (≈ 124 µM)	> 128	> 128
C[C@@H](NC(=O)C(F)F)[C@H]1C(=O)N2C(C(=O)O)=C(S[C@@H]3CN[C@H](CNS(C)(=O)=O)C3)[C@H](C)[C@H]12 [Example 85]	1 (≈ 2.01 µM)	2 (≈ 4.03 µM)	0.5 (≈ 1.01 µM)	64 (≈ 129 µM)	2 (≈ 4.03 µM)
C[C@@H](NS(=O)(=O)CC(F)(F)F)[C@H]1C(=O)N2C(C(=O)O)=C(S[C@@H]3CN[C@H](C(=O)N(C)C)C3)[C@H](C)[C@H]12 [Example 86]	2 (≈ 3.78 µM)	8 (≈ 15.1 µM)	1 (≈ 1.89 µM)	128 (≈ 242 µM)	8 (≈ 15.1 µM)
C[C@@H](NC(=O)C(F)(F)C(F)(F)F)[C@H]1C(=O)N2C(C(=O)O)=C(S[C@@H]3CN[C@H](C(=O)N(C)C)C3)[C@H](C)[C@H]12 [Example 87]	2 (≈ 3.78 µM)	8 (≈ 15.1 µM)	1 (≈ 1.89 µM)	64 (≈ 121 µM)	8 (≈ 15.1 µM)
C[C@@H](NC(=O)C(F)F)[C@H]1C(=O)N2C(C(=O)O)=C(Sc3nc(-c4ccncc4)cs3)[C@H](C)[C@H]12 [Example 88]	0.25 (≈ 0.52 µM)	> 128	128 (≈ 266 µM)	> 128	> 128
